Source: US10258642B2, “Dextran sulfate for use in mobilization of cells” (TX MEDIC AB, priority 2013, dated 2019)
Values joined by “and” are separate entries in the source; they are usually repeats but may differ in a detail not shown here. Equal entries are not always repeated. Marks after values point to notes of the source that are not given here.

Assays:
peripheral blood cells [1] = test: s.c. dose finding study, hematological analysis of peripheral blood
stem cells = conditions: mice (Broxmeyer 2005); cited from earlier work
[2] = clinical trials (CHMP Assessment Report); cited from earlier work
HGF [3] = test: s.c. dose finding study, HGF-ELISA
[4] = tested on: hematopoietic colony-forming cells (CFC); test: i.v. dose finding study, colony-forming cell assay; assay type: in vivo, mice
Procedure: Blood (100-200 μL) was transferred to polypropylene tubes containing heparin (final concentration 17.5 IE/mL). Erythrocytes were depleted using ammonium chloride solution (StemCell Technologies, Vancouver, BC, Canada). Remaining cells were resuspended in Iscove's modified Dulbecco's Medium with 2% fetal bovine serum (StemCell Technologies) and mixed with 2 mL of methylcellulose media supplemented with a cocktail of recombinant cytokines (MethoCult 3434; StemCell Technologies) and penicillin-streptomycin according to manufacturer's instructions. Cultures of 1.1 mL containing HPCs were plated onto 35 mm dishes (Sarstedt, Landskrona, Sweden) and placed in a humidified chamber with 5% CO2 at 37° C. Total number of colonies was counted on day 12 of culture.

peripheral blood cells [5] = test: effect of administration route, hematological analysis; assay type: in vivo, mice; conditions: 30 minutes after administration
Procedure: (§1) Peripheral blood was sampled by terminal heart puncture under isoflurane-anesthesia using EDTA-flushed syringes and transferred to polypropylene tubes containing 1.6 mg EDTA (Sarstedt, Landskrona, Sweden).
Mobilization was performed on DBA/2N mice (9-10 months, Charles River) using 100 mg/kg dextran sulfate (Meito, i.v. and s.c.).
The effect on peripheral blood cells after administration of 100 mg/kg dextran sulfate i.v. and s.c. was compared (n=5). Cells were harvested 30 minutes after administration for both administration routes.

[6] = tested on: hematopoietic colony-forming cells (CFC); test: time-effect relationship, colony-forming cell assay; assay type: in vivo; conditions: mice
Excerpt: Peripheral blood was sampled by terminal heart puncture under isoflurane-anesthesia using EDTA-flushed (0.2 M EDTA prepared from a stock solution of 0.5 M EDTA (prepared by Rudbeck laboratory) diluted 1:2.5 in 0.9% NaCl) syringes.

HGF [7] = test: time-effect relationship, HGF-ELISA; assay type: in vivo, mice; conditions: for HGF highest level: 15 minutes after administration, mice; for HGF: i.v., plasma, HGF measured in another experiment
Procedure: Plasma was prepared by centrifuging EDTA blood for 5 minutes at 3000 g, and frozen at […] until analysis.

peripheral blood cells [8] = test: combination with G-CSF, hematological analysis; assay type: in vivo, mice; conditions: for release of lymphocytes in single therapy compared to single administration of G-CSF or plerixafor: mice
Procedure: G-CSF (NEUPOGEN®, Amgen, Holland) was supplied as sterile isotonic aqueous solution at 0.3 mg/mL and was diluted in normal saline to a concentration of 50 μg/mL. G-CSF was administered at a dose of 2.5 μg as a single subcutaneous injection, morning and evening Day -2 and Day -1. Dextran sulfate of different average molecular weights were used:
Standard treatment of patients prior to apheresis is based on daily injections of G-CSF for up to one week. Clinically dextran sulfate could be used in combination with G-CSF. In a study in mice 2.5 μg/animal of G-CSF was administered twice daily (8 hrs apart) for 2 days (Broxmeyer 1999).

lymphocytes = test: cell (lymphocyte) mobilization in humans after 10 min i.v. infusion; assay type: in vivo
Procedure: FIG. 13 illustrates mobilization of lymphocytes in peripheral blood in humans receiving a 10 min i.v. infusion of 15 mg/kg LMW-DS (top panel), 18 mg/kg LMW-DS (middle panel) or 24 mg/kg LMW-DS (lower panel) at time 0. The black line represents average lymphocyte levels and gray lines represent lymphocyte levels in individual humans.
Thus, the peak in cell mobilization starts about 1 hour after dextran sulfate administration, which is shown in […] exemplified by mobilization of lymphocytes following administration of different doses of dextran sulfate to human subjects at time 0 hours. Thus, the peak effect in cell mobilization in humans typically occurs within the first three hours following dextran sulfate administration.

peripheral blood cells [9] = conditions: single dose; AMD3100 s.c., dextran sulfate i.v.
SDF-1 = conditions: single injection, monkeys (Sweeney 2002); cited from earlier work
peripheral blood cells [10] = test: time-effect relationship, hematological analysis; conditions: 100 mg/kg i.v.; for Lymph / PLT / WBC: mean±SEM
Procedure: as §1

CFU-GM = conditions: colonies with >50 cells; G-CSF 10 μg/kg daily for five days and/or dextran sulfate 15 mg/kg once on day 5 (Han 1998); cited from earlier work
[11] = AMD3100 5 mg/kg s.c., 1 hour, mean ± SEM
[12] = LMW-DS (pKC) 10 mg/kg s.c., 3 hours, mean ± SEM
[13] = LMW-DS (pKC) 50 mg/kg s.c., 3 hours, mean ± SEM
[14] = LMW-DS (pKC) 150 mg/kg s.c., 3 hours, mean ± SEM
[15] = LMW-DS (pKC) 500 mg/kg s.c., 3 hours, mean ± SEM

## c1cc(CN2CCCNCCNCCCNCC2)ccc1CN1CCCNCCNCCCNCC1 [AMD3100, 1,1′-[1,4-phenylenebis (methylene)]-bis-1,4,8,11-tetraazacyclotetradecane, reference compound]
Peripheral blood cells [1]; [11]
  Basophils: 0.03 ± 0.0 10^9 cells/L
  Eosinophils: 0.3 ± 0.0* 10^9 cells/L
  LUC: 0.05 ± 0.0* 10^9 cells/L
  Leukocytes (WBC): 7.8 ± 0.6* 10^9 cells/L
  Lymphocytes: 5.3 ± 0.4 10^9 cells/L
  MPV: 8.0 ± 0.1
  Monocytes: 0.3 ± 0.0 10^9 cells/L
  Neutrophils: 1.8 ± 0.2* 10^9 cells/L
Peripheral blood cells [1]; mouse, in vivo, sc, 5 mg/kg
  Erythrocytes: 8.0 ± 0.0*** 10^12 cells/L
  Hemoglobin: 112.5 ± 0.9
  MCHC: 332.0 ± 2.0 g/L
  MCV: 42.7 ± 0.6 fL
  Platelets: 706.8 ± 30.7** 10^9 cells/L
  Reticulocytes: 186.3 ± 23.7 10^9 cells/L
Stem cells
  time of peak in mobilized stem cells after plerixafor administration: 1 h
[2]
  HSCT patients who experienced infections after transplantation: 20-25%
HGF [3]; one hour after administration of AMD3100
  HGF levels: 650 ± 230 pg/mL

## dextran sulfate [LMW-DS]
Peripheral blood cells [1]; 10-500 mg/kg s.c., 3 hours after administration
  circulating white blood cells (WBC), mainly lymphocytes, and HGF: dose-dependent increase
Peripheral blood cells [1]; [12]
  Basophils: 0.02 ± 0.0 10^9 cells/L
  Eosinophils: 0.2 ± 0.0† 10^9 cells/L
  Erythrocytes: 9.0 ± 0.0††† 10^12 cells/L
  Hematocrit: 0.4 ± 0.0
  Hemoglobin: 122.0 ± 1.7
  LUC: 0.1 ± 0.0* 10^9 cells/L
  Leukocytes (WBC): 9.0 ± 1.2* 10^9 cells/L
  Lymphocytes: 6.1 ± 0.5** 10^9 cells/L
  MCHC: 323.7 ± 3.8 g/L
  MCV: 41.9 ± 0.1 fL
  MPV: 7.7 ± 0.2
  Monocytes: 0.6 ± 0.011 10^9 cells/L
  Neutrophils: 1.9 ± 0.4 10^9 cells/L
  Platelets: 1083.3 ± 116.3† 10^9 cells/L
  Reticulocytes: 222.7 ± 6.3 10^9 cells/L
Peripheral blood cells [1]; [13]
  Basophils: 0.03 ± 0.0 10^9 cells/L
  Eosinophils: 0.2 ± 0.0 10^9 cells/L
  Erythrocytes: 9.2 ± 0.4† 10^12 cells/L
  Hematocrit: 0.4 ± 0.0
  Hemoglobin: 127.8 ± 5.0
  LUC: 0.1 ± 0.0* 10^9 cells/L
  Leukocytes (WBC): 9.4 ± 0.7 10^9 cells/L
  Lymphocytes: 7.3 ± 0.6**/f 10^9 cells/L
  MCHC: 324.3 ± 1.41 g/L
  MCV: 42.6 ± 0.3 fL
  MPV: 7.9 ± 0.1
  Monocytes: 0.3 ± 0.1 10^9 cells/L
  Neutrophils: 1.5 ± 0.2 10^9 cells/L
  Platelets: 902.0 ± 96.4 10^9 cells/L
  Reticulocytes: 230.1 ± 64.6 10^9 cells/L
Peripheral blood cells [1]; [14]
  Basophils: 0.1 ± 0.0** 10^9 cells/L
  Eosinophils: 0.3 ± 0.1* 10^9 cells/L
  Erythrocytes: 8.3 ± 0.6 10^12 cells/L
  Hematocrit: 0.3 ± 0.0
  Hemoglobin: 113.3 ± 8.2
  LUC: 0.1 ± 0.0***/†† 10^9 cells/L
  Leukocytes (WBC): 15.7 ± 0.4***/††† 10^9 cells/L
  MCHC: 329.3 ± 4.9 g/L
  MCV: 41.7 ± 0.4 fL
  MPV: 7.2 ± 0.5
  Monocytes: 0.4 ± 0.0*/†† 10^9 cells/L
  Neutrophils: 2.4 ± 0.3** 10^9 cells/L
  Platelets: 893.5 ± 60.8† 10^9 cells/L
  Reticulocytes: 243.7 ± 23.7 10^9 cells/L
Peripheral blood cells [1]; [15]
  Basophils: 0.1 ± 0.0* 10^9 cells/L
  Eosinophils: 0.4 ± 0.1* 10^9 cells/L
  Erythrocytes: 9.4 ± 0.2††† 10^12 cells/L
  Hematocrit: 0.4 ± 0.0
  Hemoglobin: 130.3 ± 3.1
  LUC: 0.3 ± 0.2 10^9 cells/L
  Leukocytes (WBC): 21.8 ± 2.5***/†† 10^9 cells/L
  MCHC: 327.3 ± 2.5 g/L
  MCV: 42.4 ± 0.3 fL
  MPV: 7.9 ± 0.1
  Monocytes: 0.5 ± 0.1*/† 10^9 cells/L
  Neutrophils: 2.7 ± 0.3**/† 10^9 cells/L
  Platelets: 893.5 ± 61.0†† 10^9 cells/L
  Reticulocytes: 224.5 ± 35.2 10^9 cells/L
[4]; lowest dose given, 25 mg/kg i.v., p<0.001
  mobilization effect on CFC: significant evident already at the lowest dose given
[4]; single dose, AMD3100 s.c., dextran sulfate i.v.
  increase of CFC over control: 6-12 times
[4]; single i.v. injection
  BFU-E compared with AMD3100: seemed to increase BFU-E to a greater extent than AMD3100
Peripheral blood cells [5]; 100 mg/kg (Meito) i.v.
  Lymphocytes: 12.6 ± 1.7 *10^9/L
  WBC: 16.2 ± 1.8 *10^9/L
Peripheral blood cells [5]; 100 mg/kg (Meito) s.c.
  Lymphocytes: 9.9 ± 1.2 *10^9/L
Peripheral blood cells [5]; 100 mg/kg
  circulating WBC, lymphocytes, CFC or CFC subtypes, i.v. versus s.c.: no significant differences
[6]; 100 mg/kg i.v.
  time at which the number of CFCs peaks (peak starts): 7.5 min
  time of BFU-E peak: 7.5 min
  time of CFU-GM/CFU-GEMM peak: 15 to 30 min
[6]
  persistence of the CFC peak: at least 1 hour
  time of peak in mobilized cells (CFCs) after dextran sulfate administration: 7.5 to 30 min
HGF [7]; listed as Dextran sulfate
  HGF highest level: 16000 pg/mL
HGF [7]; listed as dextran sulfate
  HGF highest level: 15960 pg/mL and 16000 pg/mL
HGF [7]; after 15 minutes
  increase of HGF compared to baseline levels: > 100 fold
HGF [7]; dextran sulfate 15 minutes versus AMD3100 after 1 hour
  HGF increase relative to plerixafor (AMD3100): 25 fold
HGF [7]; 15 min
  HGF: 15,960 ± 1,450 pg/mL
HGF [7]; 30 min
  HGF: 13,800 ± 1,100 pg/mL
HGF [7]; 1 hr
  HGF: 7,740 ± 510 pg/mL
HGF [7]; 3 hr
  HGF: 710 ± 230 pg/mL
Peripheral blood cells [8]
  release of lymphocytes in single therapy compared to single administration of G-CSF or plerixafor: increased lymphocytes
Peripheral blood cells [8]; listed as dextran sulfate
  release of lymphocytes in single therapy compared to single administration of G-CSF or plerixafor: at least doubles
lymphocytes; humans
  time of peak in mobilized cells after dextran sulfate administration: 30 to 120 min
lymphocytes; preliminary human data
  time at which cell mobilization is back to normal levels: about 24 hours
  time at which cell mobilization starts to decline: about 6 hours
lymphocytes; preliminary human data, lymphocytes
  time of peak of cell mobilization after administration: about 1 hour
Peripheral blood cells [9]
  general increase of WBC over control: 4-5 times
SDF-1
  time of maximum levels of peripheral SDF-1: 6 h
  time of return of peripheral SDF-1 to baseline: 24 h
HGF [3]; 50, 150 and 500 mg/kg s.c.
  levels of circulating HGF: significantly (p<0.001) increased levels
Peripheral blood cells [10]
  number of platelets (PLT): did not affect
Peripheral blood cells [10]; 7.5 min
  Lymph: 4.6 ± 0.5*** *10^9/L
  PLT: 1,034 ± 31 *10^9/L
  WBC: 5.6 ± 0.5* *10^9/L
Peripheral blood cells [10]; 15 min
  Lymph: 8.9 ± 0.7*** *10^9/L
  PLT: 1,122 ± 58 *10^9/L
  WBC: 10.2 ± 0.7*** *10^9/L
Peripheral blood cells [10]; 30 min
  Lymph: 12.3 ± 1.1*** *10^9/L
  PLT: 978 ± 64 *10^9/L
  WBC: 14.6 ± 1.3*** *10^9/L
Peripheral blood cells [10]; 1 hr
  Lymph: 8.8 ± 0.5*** *10^9/L
  PLT: 965 ± 23 *10^9/L
  WBC: 11.2 ± 0.6*** *10^9/L
Peripheral blood cells [10]; 3 hr
  Lymph: 5.2 ± 0.8** *10^9/L
  PLT: 936 ± 26 *10^9/L
  WBC: 6.8 ± 1.0* *10^9/L
Peripheral blood cells [10]; mice
  time of highest numbers of WBC and lymphocytes: around 30 minutes

B1: G-CSF: granulocyte-colony stimulation factor (NEUPOGEN, Amgen) (protein, chains of the INN, looked up)
chain: MTPLGPASSLPQSFLLKCLEQVRKIQGDGAALQEKLCATYKLCHPEELVLLGHSLGIPWAPLSSCPSQALQLAGCLSQLHSGLFLYQGLLQALEGISPELGPTLDTLQLDVADFATTIWQQMEELGMAPALQPTQGAMPAFASAFQRRAGGVLVASHLQSFLEVSYRVLRHLAQP
Peripheral blood cells [8]; G-CSF 2×2.5 μg/day s.c. for 2 days
  number of WBC compared to normal: increased the number of WBC
CFU-GM
  CFU-GM level: 17.1±1.9 colonies
